Which melting point does the source give for `COC(=O)C[C@@H](CC(=O)C=Cc1c(-c2ccc(F)cc2)c(-c2ccccc2)c(C(=O)Nc2ccccc2)n1C(C)C)O[Si](C)(C)C(C)(C)C` here?
The melting point was 62 to 64 °C.

Which melting point does the source give for `Nc1cc(OCCC2CCCCC2)nc(N)n1` here?
The melting point was 142 °C.

With `CCOC(=O)c1cn(N=C(C)C)c2c(F)c(F)c(F)cc2c1=O` as the compound, how does the melting point read?
Its melting point is 166 °C.

Which melting point does the source give for `CCCCCCCC(O)C1(C)OC(C)=C(O)C1=O` (stereo not drawn) here?
Its melting point is 97 to 98 °C.

With `Cc1cncc(-c2nc(C(F)(F)F)cn2-c2ccc(S(N)(=O)=O)cc2)c1` as the compound, how does the melting point read?
The melting point was 242 to 243 °C.

For `CC(C)n1c(=O)c2cc(C(=O)O)cn2c2ccccc21`, which melting point is on record?
Its melting point is 238 to 240 °C.

With `CCCn1ncnc1COc1nn2c(-c3ccc(F)cc3)nncc2c1C(C)(C)C` as the compound, how does the melting point read?
The melting point was 154 °C.

Which melting point does the source give for `COc1ccc2c(c1)C(C(=O)N(Cc1ccc(OCC(F)(F)F)cc1)c1ccc(C(C)C)cc1)CCC2` (stereo not drawn) here?
Its melting point is 125 to 127 °C.

For `O=[N+]([O-])c1cccc(C(O)CO)c1` (racemic), which melting point is on record?
The melting point was 45 °C.

With `Cc1cn(C(C)C(=O)N(C)C)nc1-c1ccc(Cl)cc1` (stereo not drawn) as the compound, how does the melting point read?
The melting point was 99.5 to 101 °C.

Which melting point does the source give for `CC(C)C(NC(=O)C(Cc1ccccc1)NC(=O)c1ccc(NS(=O)(=O)c2ccc(C(C)(C)C)cc2)cc1)C(=O)Nc1n[nH]c(=S)s1` (stereo not drawn) here?
Its melting point is 140 to 144 °C.

Which melting point does the source give for `COc1ccc(C(=O)Nc2nc(-c3ccccc3)c(-c3ccc(=O)n(C(C)C)n3)s2)cc1` here?
Its melting point is 219 to 221 °C.

With `CC(C)(CNc1c(C(N)=O)cnn2cccc12)N1CCOCC1` as the compound, how does the melting point read?
The melting point was 179 °C.

Which melting point does the source give for `Cc1cccc(Nc2cc(Nc3ccc(OCCCO)cc3)ncn2)c1` here?
The melting point was 196 to 200 °C.

Which melting point does the source give for `CCOCc1nc2c(N)nc3ccccc3c2n1CC1(OCCS(C)(=O)=O)CCNCC1` here?
The melting point was 212 to 214 °C.

With `CN(CCOc1ccc(C=C2SC(=O)NC2=O)cc1)c1nc2ccccc2o1` as the compound, how does the melting point read?
Its melting point is 227 to 229 °C.

With `N#Cc1cc(-c2nccs2)[nH]c1C(CC1CCOCC1)c1ccc(S(=O)(=O)C2CC2)cc1` (stereo not drawn) as the compound, how does the melting point read?
The melting point was 114 to 116 °C.

With `Cc1cc2c(cc1N1CC=CC1)OC(=O)C2C` (stereo not drawn) as the compound, how does the melting point read?
The melting point was 81 to 82 °C.

Which melting point does the source give for `CCCCN(CCCC)CCCOc1ccc(S(=O)(=O)c2c(C(C)C)n(C)c3ccccc23)cc1` here?
Its melting point is 90 °C.

Which melting point does the source give for `COc1ccc2ccccc2c1C1CCN(CCCCNC(=O)c2ccc(-c3ccc(Cl)cc3)cc2)CC1` here?
Its melting point is 149 °C.

For `CCOCC1OC(n2cnc3c(NC4CCCC4)nc(Cl)nc32)C(O)C1O` (stereo not drawn), which melting point is on record?
Its melting point is 114 to 116 °C.

For `c1cnc(N2CCN(CCCCn3cnc4ccccc43)CC2)nc1`, which melting point is on record?
Its melting point is 85 to 88 °C.

Which melting point does the source give for `COCCNC(=O)CC1CN=C(c2cc3cc(Oc4ccc(S(C)(=O)=O)nc4)cc(OC)c3[nH]2)S1` (stereo not drawn) here?
Its melting point is 175 to 176 °C.

Which melting point does the source give for `NC(=O)c1ccccc1Sc1ccccc1[N+](=O)[O-]` here?
The melting point was 166 to 167 °C.

For `CC(=O)c1sccc1CN1C(=O)C(NC(=O)Nc2cccc(C)c2)N=C(C2CCCCC2)c2ccccc21` (racemic), which melting point is on record?
Its melting point is 231 to 232 °C.

Which melting point does the source give for `COc1cc(N)c2nccc(C=Cc3cccc(C(F)(F)F)c3)c2c1` here?
Its melting point is 124 to 126 °C.

Which melting point does the source give for `COc1cc2nc(-c3cc(C)c(O)c(C)c3)[nH]c(=O)c2c(OC)c1CN1CCOCC1` here?
Its melting point is 237 to 239 °C.

Which melting point does the source give for `Cc1cc(SCc2cccc3nn(-c4ccc(C(F)(F)F)cc4)cc23)ccc1OC(C)(C)C(=O)O` here?
The melting point was 125 to 127 °C.

For `NC(=O)C(=O)NC(C(=O)O)c1ccco1` (stereo not drawn), which melting point is on record?
Its melting point is 174 °C.

Which melting point does the source give for `O=c1[nH]c2cccc(Cl)c2s1` here?
Its melting point is 202 to 203 °C.

With `Cc1ccc(Sc2cncc3sc(C(=O)NN)cc23)cc1` as the compound, how does the melting point read?
The melting point was 176 to 178 °C.

With `CC1Cc2cc(OCc3ccccc3)c(O)cc2C(=O)C1C` (stereo not drawn) as the compound, how does the melting point read?
Its melting point is 90 to 93 °C.

With `CC(=O)N1CCN=C1c1ccc(NC(=O)C2=Cc3ccccc3OCC2)cc1` as the compound, how does the melting point read?
Its melting point is 222 to 224 °C.

Which melting point does the source give for `CC(C)(C)C(O)C(=Cn1ccnc1)Oc1ccc(Cl)cc1` (stereo not drawn) here?
Its melting point is 141 to 143 °C.

With `COc1ccc(C(=O)C(Br)CC2CCCCC2)c(OC)c1` (stereo not drawn) as the compound, how does the melting point read?
The melting point was 83 to 89 °C.

Which melting point does the source give for `COC(=O)c1ccc(C(O)COc2ccc3c(c2)C(C)(C)CCC3(C)C)cc1` (stereo not drawn) here?
Its melting point is 92 to 96 °C.

With `CC(=O)OCc1nc(C(C)C)c(Sc2cc(Cl)cc(Cl)c2)n1C` as the compound, how does the melting point read?
Its melting point is 92 to 93 °C.

Which melting point does the source give for `O=C1Nc2ccccc2C12COc1cc(F)c(F)cc12` (stereo not drawn) here?
The melting point was > 200 °C.

With `CCC(C(=O)C(C)C(O)C(C)CCc1c(NC(C)=O)cc(C)c(O)c1C(=O)O)C1OC(CC)(C2CCC(O)(CC)C(C)O2)CC1C` (stereo not drawn) as the compound, how does the melting point read?
Its melting point is 189 to 190 °C.

Which melting point does the source give for `COc1cc(C(=O)O)ccc1Cc1cccc2ccc(CCCCC(=O)N(C)C)cc12` here?
Its melting point is 125 to 127 °C.

Which melting point does the source give for `CCCOc1cc([N+](=O)[O-])ccc1[N+](=O)[O-]` here?
Its melting point is 52 to 54 °C.

With `O=[N+]([O-])c1ccc(-c2cccs2)c(-c2cccs2)c1` as the compound, how does the melting point read?
The melting point was 97 to 101 °C.

Which melting point does the source give for `CC(=O)c1cc(C(F)(F)F)cc(S(N)(=O)=O)c1` here?
The melting point was 157 to 159 °C.

With `CN(C)C1CCN(c2nc(N3CCOCC3)c3ncnc(NCCCc4ccccc4)c3n2)CC1` as the compound, how does the melting point read?
Its melting point is 82 to 84 °C.

Which melting point does the source give for `CCC(C)C(C(=O)O)n1sc2ccccc2c1=O` (stereo not drawn) here?
Its melting point is 50 to 52 °C.

Which melting point does the source give for `CCn1nc(-c2ccccc2)c(C(C)=O)c([N+](=O)[O-])c1=O` here?
The melting point was 226 to 227 °C.

For `Cc1ccc(S(=O)(=O)c2ccc(C)cc2CC(Cl)(Cl)C#N)c(CC(Cl)(Cl)C#N)c1`, which melting point is on record?
The melting point was 71 to 72 °C.

For `FC(F)(F)c1cc(-c2ccc(Cl)cc2)nc2c(-c3ccncc3)cnn12`, which melting point is on record?
Its melting point is 274 °C.

With `CCOC(=O)c1c(C(F)(F)F)nc(C(F)(F)F)c(C(=O)O)c1Cl` as the compound, how does the melting point read?
The melting point was 113 to 115 °C.

Which melting point does the source give for `O=C(O)C(=O)CC(=O)c1cccn1Cc1cccc(F)c1` here?
Its melting point is 147 to 149 °C.

With `CC(C)(C)CCNC(=O)c1coc(C2C3CCC(O3)C2Cc2ccccc2CCC(=O)O)n1` (stereo not drawn) as the compound, how does the melting point read?
The melting point was 160 to 162 °C.

Which melting point does the source give for `O=CNc1nc(-c2ccccc2)c2cc(Cl)ccc2n1` here?
The melting point was 252 °C.

For `CC(C)S(=O)(=O)Nc1ccc(Br)cc1`, which melting point is on record?
The melting point was 98 to 100 °C.

Which melting point does the source give for `O=C(Nc1ccc(OC(F)(F)F)cc1)NC1CCN(C(=O)c2cc(O)c(O)c(O)c2)CC1` here?
The melting point was 168 to 175 °C.

With `COc1cc(NC(=O)OCc2ccccc2)c(Cl)cc1-c1n[nH]c(=O)o1` as the compound, how does the melting point read?
The melting point was 214 °C.

Which melting point does the source give for `O=C(CN1CCCNC1=O)N1CCC(C2c3ncc(Br)cc3CCc3cc(Cl)cc(Br)c32)CC1` (single isomer, unassigned; (+)) here?
Its melting point is 155 to 156 °C.

Which melting point does the source give for `CC(C)c1ccc(C(=O)C23CC4CC(CC(C4)C2)C3)c(C(C)C)c1OS(N)(=O)=O` here?
Its melting point is 165 to 167 °C.

Which melting point does the source give for `CC(C)(C)c1ccc(C#N)cc1N` here?
Its melting point is 94.5 to 95 °C.

For `COc1ccccc1N1CCN(CCCCN2CCN(c3ccccc3)C2=O)CC1`, which melting point is on record?
The melting point was 94 to 95 °C.

For `C=CCOc1cc([N+](=O)[O-])ccc1[N+](=O)[O-]`, which melting point is on record?
Its melting point is 66.5 to 68 °C.

Which melting point does the source give for `O=c1oc2cc(OCC3CO3)ccc2c2c1CCCC2` (stereo not drawn) here?
The melting point was 120 to 121 °C.

With `NS(=O)(=O)c1ccc(C(=O)c2ccc(O)cc2)s1` as the compound, how does the melting point read?
Its melting point is 183 to 190 °C.

With `CN(C1CCN(Cc2csnn2)CC1)S(=O)(=O)c1ccc(Nc2nccc(Nc3ccc(F)c(F)c3)n2)cc1` as the compound, how does the melting point read?
The melting point was 172 to 173 °C.

Which melting point does the source give for `O=S(=O)(Cl)c1cc(Cl)c(Cl)c(S(=O)(=O)Cl)c1` here?
The melting point was 114 to 115 °C.

With `CNC(=O)N1CCC(c2nn(-c3ccc(F)cc3)c3ccccc23)CC1` as the compound, how does the melting point read?
The melting point was 113 to 115 °C.

With `Sc1nc2ccccc2n1Cc1cc(Cl)cc(Cl)c1` as the compound, how does the melting point read?
The melting point was 233 °C.

For `CC(=O)NCc1ccc2c(c1)N(C1CCN(CCc3ccc(F)cc3)CC1)CC2(C)C`, which melting point is on record?
The melting point was 131 to 133 °C.

With `CCn1c(=O)oc2cc([N+](=O)[O-])cc(F)c21` as the compound, how does the melting point read?
Its melting point is 121 to 122 °C.

From a melting point compilation (Tetko et al.; mined from patent text by program, amines drawn as free bases though some values may be those of a salt)
